Here are results for 13 compounds from patent US12234202B2, “Covalent inhibitors of coronavirus papain-like protease” (UT-Battelle, LLC, priority 2021, dated 2025).

Read-outs that look alike come from different tables or passages of the source.

In data set [1] the target is T1, SARS-CoV-2 PLpro (Severe acute respiratory syndrome coronavirus 2, UniProt P0DTD1). Nature of the data set: biochemical. Particulars: for kinact/KI / kinact/KI (M^−1 s^−1): second-order rate constant.
Data set [2] relates to Vero E6 cells.
Data set [3] addresses ubiquitin C-terminal hydrolase UCH-L3 (Homo sapiens (Human), UniProt P15374). Particulars: K. Ratia et al.; cited from earlier work.
Data set [4] concerns the target ubiquitin C-terminal hydrolase UCH-L1 (Homo sapiens (Human), UniProt P09936). Particulars: K. Ratia et al.; cited from earlier work.
The target in data set [5] is deISGylase USP18 (Homo sapiens (Human), UniProt Q9UMW8). Particulars: K. Ratia et al.; cited from earlier work.
In data set [6] the test system is cell viability. Particulars: concentrations up to 50 μM in cell viability assays; cited from earlier work.
Data set [7] concerns the target HAUSP (Homo sapiens (Human), UniProt Q93009). Particulars: K. Ratia et al.; cited from earlier work.
The test system of data set [8] is SARS-CoV-2 isolate USA-WA1/2020. The data set is described as follows: microbe, parasite or virus in culture. The data set is classed as cell-based.
For data set [9], the target named is T1, SARS-CoV-2 PLpro. The data set is described as follows: biochemical. It counts as biochemical. Particulars: after 30-minute incubation; Z-RLRGG-AMC.
Data set [10] has as its target SARS-CoV PLpro (Severe acute respiratory syndrome coronavirus (SARS-CoV), UniProt P0C6X7). Particulars: cited from earlier work.
Data set [11] concerns viral replication in Vero E6 cells. Particulars: K. Ratia et al.; cited from earlier work.
A short description of data set [12]: in vitro. Particulars: African green monkey.
The subject of data set [13] is SARS-CoV-2 USA-WA1/2020. Nature of the data set: CPE assay in Vero E6 cells, neutral red staining, USA-WA1/2020. It counts as cell-based. Particulars: Severe acute respiratory syndrome coronavirus 2, Vero C1008.
For data set [14], the system named is SARS-CoV-2 Omicron (B.1.1.529). Nature of the data set: microbe, parasite or virus in culture. Particulars: Severe acute respiratory syndrome coronavirus 2, Caco-2. The data set is classed as cell-based.
Data set [15] has as its system Caco-2 cells. Particulars: Delta row.
Data set [16] relates to SARS-CoV-2 USA-WA1/2020. The data set is described as follows: microbe, parasite or virus in culture. It counts as cell-based. Particulars: Severe acute respiratory syndrome coronavirus 2, Caco-2.
Data set [17] addresses seven human DUBs, UCHL1, USP2, USP4, USP7, USP8, USP15, and USP30. Nature of the data set: Human deubiquitinase selectivity screening. It counts as biochemical. Particulars: for IC50: UCHL1, USP2, USP4, USP7, USP8, USP15, USP30, read-out: IC50 (μM) values versus seven human deubiquitinases; for inhibition of human DUBs: concentrations up to 30 μM.
The nature of data set [18]: in vitro. Particulars: human, s9.
The conditions of data set [19]: mouse, in vivo.
Data set [20] concerns SARS-CoV-2 Delta (B.1.617.2). Nature of the data set: microbe, parasite or virus in culture. The data set is classed as cell-based. Particulars: Severe acute respiratory syndrome coronavirus 2, Caco-2.
The nature of data set [21]: in vitro. Particulars: African green monkey. The source holds these as a separate data set.
For data set [22], the system named is SARS-CoV-2 Omicron (B.1.1.529). The data set is described as follows: CPE assay in Vero E6 cells, neutral red staining, Omicron. The data set is classed as cell-based. Particulars: Severe acute respiratory syndrome coronavirus 2, Vero C1008.
Data set [23] has as its system Vero E6 cells. Particulars: 2 μM CP-100356, Delta row.
The nature of data set [24]: in vitro. Particulars: human.
A short description of data set [25]: in vitro. Particulars: human, microsomes.
The subject of data set [26] is SARS-CoV-2 Delta (B.1.617.2). The data set is described as follows: CPE assay in Vero E6 cells, neutral red staining, Delta. It counts as cell-based. Particulars: Severe acute respiratory syndrome coronavirus 2, Vero C1008.
For data set [27], the target named is T1, SARS-CoV-2 PLpro. The data set is described as follows: biochemical. Particulars: ISG15-CHOP2 substrate.
Data set [28] concerns the target T1, SARS-CoV-2 PLpro. The data set is described as follows: biochemical. Particulars: Ub-rhodamine substrate.
[29] abbreviates: time-dependent inhibition yes/no.
Setting [30] is: cytopathic effect in SARS-CoV-2-infected Vero E6 cells, 48 h, MOI 0.1.

Take `COC(=O)/C=C/C(=O)NNC(=O)CCc1ccc(NC(C)=O)cc1C(=O)N[C@H](C)c1cccc2ccccc12` [Compound 8, methyl-(R,E)-4-(2-(3-(4-acetamido-2-((1-(naphthalen-1-yl)ethyl)carbamoyl)phenyl)propanoyl)hydrazineyl)-4-oxobut-2-enoate]: in data set [1], the kinact/KI (usually the second-order rate constant of inactivation) worked out at 14000 M⁻¹ s⁻¹ and the “kinact/KI (M^−1 s^−1)” value is 14,000 M^−1 s^−1. The “Cytotox. (<30 μM)” value in data set [2] is on record as “no”.

For GRL0617, the IC50 in data set [3], in [4], in [5] and in data set [7] was more than 100 µM throughout. Moreover, in [1], the Time dep. result is “no”. Besides, the cytotoxicity entry in data set [6] is “does not display cytotoxicity”.

Regarding `C[C@@H](NC(=O)c1ccccc1CCC(=O)NNC(=O)CC#N)c1cccc2ccccc12` [Compound 11, (R)-2-(3-(2-(2-cyanoacetyl)hydrazineyl)-3-oxopropyl)-N-(1-(naphthalen-1-yl)ethyl)benzamide], the Time dep. entry in data set [1] (setting [29]) was “not and no”. The “EC50 (μM)” value in data set [8] (setting [30]) is “no CPE”. In [2], the “Cytotox. (<30 μM)” value was “no”. In addition, it took 8 µM to reach half-maximal inhibition in data set [9] (IC50).

Turning to `CCC(CC)COC(=O)[C@H](C)N[P@](=O)(OC[C@H]1O[C@@](C#N)(c2ccc3c(N)ncnn23)[C@H](O)[C@@H]1O)Oc1ccccc1` [remdesivir, reference compound], the EC50 (in general, the concentration needed to bring the measured effect to its halfway point) in data set [8] (Severe acute respiratory syndrome coronavirus 2, Vero C1008, 48 h) is 0.74 µM.

On to `COC(=O)CCc1ccccc1C(=O)N[C@H](C)c1cccc2ccccc12` [Compound 3, methyl (R)-3-(2-((1-(naphthalen-1-yl)ethyl)carbamoyl)phenyl)-propanoate], for which the Time dep. entry in data set [1] (setting [29]) was “no”.

As to `CC(=O)Nc1ccc(C)c(C(=O)N[C@H](C)c2cccc3ccccc23)c1` [Compound 15, (R)-5-acetamido-2-methyl-N-(1-(naphthalen-1-yl)ethyl)benzamide], in [8] (setting [30]), the “EC50 (μM)” value is given as “no CPE”. The values for the IC50 in data set [10] and in data set [9] were 2.6 µM and 6.2 µM, respectively. Moreover, in [11], the concentration giving a half-maximal response (EC50) was 13.1 µM. In data set [2], the “Cytotox. (<30 μM)” value is “no”.

With `C[C@@H](NC(=O)c1ccccc1CCC(=O)NNC(=O)C(C#N)=CC1CC1)c1cccc2ccccc12` [Compound 13, (R)-2-(3-(2-(2-cyano-3-cyclopropylacryloyl)hydrazineyl)-3-oxopropyl)-N-(1-(naphthalen-1-yl)ethyl)benzamide], the Time dep. result in [1] (setting [29]) is “not and no”. For the same compound, the “EC50 (μM)” value in data set [8] (setting [30]) is given as “no CPE”. Also, the “Cytotox. (<30 μM)” value in data set [2] was “yes”. The IC50 (in general, the point on the concentration scale where inhibition reaches its midpoint) in data set [9] is more than 200 µM. Moreover, the CC50 at 48 h in data set [12] was in the range of 1 to 5 µM.

As for `C#CC(=O)NNC(=O)CCc1ccccc1C(=O)N[C@H](C)c1cccc2ccccc12` [Compound 12, (R)—N-(1-(naphthalen-1-yl)ethyl)-2-(3-oxo-3-(2-propioloylhydrazineyl)propyl)benzamide], in data set [1], the kinact/KI came to 4800 M⁻¹ s⁻¹. Moreover, the Time dep. entry in data set [1] (setting [29]) is “Time-dependent inhibition was observed and yes”. In addition, the “EC50 (μM)” value in data set [8] (setting [30]) was “no CPE”. The “Cytotox. (<30 μM)” value in data set [2] was “yes”. The IC50 in data set [9] was 0.098 µM. This compound gave a CC50 at 48 h in data set [12] of 1 to 5 µM.

In the case of `COC(=O)/C=C/C(=O)NNC(=O)CCc1ccccc1C(=O)N[C@H](C)c1cccc2ccccc12` [Compound 7, methyl(R,E)-4-(2-(3-(2-((1-(naphthalen-1 yl)ethyl)carbamoyl)-phenyl)propanoyl)hydrazineyl)-4-oxobut-2-enoate], the half-maximal effective concentration (EC50) is 0.068 µM in [13], 0.68 µM in data set [22] and 0.29 µM in data set [26]. Further, the EC90 – broadly, the point of the concentration-response curve where the effect stands at 90% – in data set [14] was 2.4 µM; in data set [16], 0.26 µM; in data set [20], more than 10 µM. The CC50 in [15], in [21], in [23] and in data set [24] was more than 10 µM each time. The Time dep. entry in [1] (setting [29]) was “yes”. For the same compound, the IC50 in [17] is more than 30 µM. Moreover, in [17], the “inhibition of human DUBs” value was “no inhibition was observed”. The half-life – broadly, the time needed for the level to fall by half in the phase considered – at 1 μM in data set [18] is 60 min; in data set [25], 50 min. In addition, the “exposure following IV dosing” value in [19] (iv, 3 mg/kg) is on record as “Little exposure was observed”. In data set [19] (po, 10 mg/kg), the “exposure following PO dosing” value is recorded as “no exposure recorded”. The “Cytotox. (<30 μM)” value in data set [2] is “no”. In data set [12], this compound yielded a CC50 at 48 h of more than 30 µM.

As for `Cc1ccccc1C(=O)N[C@H](C)c1cccc2ccccc12` [Compound 14, (R)-2-methyl-N-(1-(naphthalen-1-yl)ethyl)benzamide], the values for the half-life at 1 μM in data set [18] and in data set [25] were more than 60 min and 41 min, respectively. For the same compound, the “EC50 (μM)” value in data set [8] (setting [30]) is given as “no CPE”. The 50% effective concentration (EC50) in data set [11] was 10 µM. The “Cytotox. (<30 μM)” value in [2] is “no”. This compound also showed an IC50 in data set [9] of 100 µM.

Take `CC(=O)Nc1ccc(CCC(=O)NNC(=O)CCl)c(C(=O)N[C@H](C)c2cccc3ccccc23)c1` [Compound 10, (R)-5-acetamido-2-(3-(2-(2-chloroacetyl)hydrazineyl)-3-oxopropyl)-N-(1-(naphthalen-1-yl)ethyl)benzamide]: in data set [1], the kinact/KI amounted to 120 M⁻¹ s⁻¹ and the “kinact/KI (M^−1 s^−1)” value was 120 M⁻¹ s⁻¹. Further, the Time dep. entry in data set [1] (setting [29]) is listed as “yes”. For the same compound, the cytoprotective effects result in data set [8] (SARS-CoV-2-infected Vero E6 cells) is “insignificant cytoprotective effects”. Further, the “EC50 (μM)” value in data set [8] (setting [30]) was “no CPE”. Besides, the “Cytotox. (<30 μM)” value in [2] was “no”. This compound returned an IC50 in [9] of 4.4 µM.

`C[C@@H](NC(=O)c1ccccc1CCC(=O)NN)c1cccc2ccccc12` [Compound 5, (R)-2-(3-hydrazineyl-3-oxopropyl)-N-(1-(naphthalen-1-yl)ethyl)benzamide]: the Time dep. entry in data set [1] (setting [29]) is listed as “no”. The compound also gave a 50% inhibitory concentration (IC50) in [9] of 24 µM.

Regarding `C[C@@H](NC(=O)c1ccccc1CCC(=O)NNC(=O)CCl)c1cccc2ccccc12` [Compound 9, (R)-2-(3-(2-(2-chloroacetyl)hydrazineyl)-3-oxopropyl)-N-(1-(naphthalen-1-yl)ethyl)benzamide], the inactivation efficiency (kinact/KI) in data set [1] amounted to 100 M⁻¹ s⁻¹. The “kinact/KI (M^−1 s^−1)” value in data set [1] turned out to be 103 M⁻¹ s⁻¹. In addition, the Time dep. result in [1] (setting [29]) is on record as “yes”. Besides, the 50% inhibitory concentration (IC50) in data set [17] was more than 30 µM; in [27], 20.2 µM; in data set [28], 1.96 µM; in data set [9], 5.4 µM. Besides, the “inhibition of human DUBs” value in [17] is “no inhibition was observed”. Further, the half-life at 1 μM in data set [18] stood at 3 min; in data set [25], 7 min. This compound also returned an EC50 in [8] (Severe acute respiratory syndrome coronavirus 2, Vero C1008, cytopathic effect in SARS-CoV-2-infected Vero E6 cells, 48 h, MOI 0.1) of 34 µM. In data set [2], the “Cytotox. (<30 μM)” value was “no”. Moreover, the CC50 at 48 h in data set [12] was more than 30 µM.
